Test results: patent US11884708B2, “Stapled peptide inhibitors of nemo as potential anti-inflammatory and anti-cancer drugs” (INSTITUT PASTEUR, priority 2015, dated 2024)
Each block holds one molecule with its values, some of them ahead of it. Where a SMILES comes first, the peptide text is derived from it. Bridges are numbered along the chain shown (N, C = ends). [ ]: non-standard residue; d: D form. The star is where a group is joined. BODIPYFLEthylmaleimide = Cc1cc(C)n2c1C=C1C=CC(CCC(=O)NCCN3C(=O)CC(*)C3=O)=[N+]1[B-]2(F)F; R8 = C=CCCCCCC[C@@](C)(N)C(=O)O; S5 = C=CCCC[C@](C)(N)C(=O)O

Assays:
70Z3-C3 cells = test: Cellular uptake of BODIPY-labeled peptides by FACS; format: cell-based; conditions: for reduction of the uptake of A-UBI-SAHND306-Q313 by endocytosis inhibitor: 30 min pre-incubation, nystatin 50 μg/ml, chlorpromazine 10 μg/ml, ethylisopropylamiloride 100 μM
Method: 2.2×10^5 cells in 100 μl of 70Z3-C3 were incubated with either 10 μM or with various doses of 10 μM, 5 μM and 1 μM of labeled-peptides at 37° C., 5% CO2. Similarly to fluorescence microscopy experiments, cells alone or incubated with BODIPY®-labeled BSA (ref) or BODIPY®-UBI devoid of the antennapedia cell penetrating sequence were used as negative control, whereas cells with BA-UBI [1] at 10 μM were used as positive control. After 2 h incubation, cells were washed 4 times with PBS at room temperature, and finally diluted 1:3 in PBS before subjected to FACS analysis. Along with the BODIPY® fluorophore the fluorescence intensity was recorded at 525±25 nm using the Gallios Flow cytometer (Beckman Coulter) to analyse each cells sample. Each internalization peptide was assessed by gating a population of 15,000 events and the data were analysed using Kaluza software version 1.2.
For determination of cellular uptake by flow cytometry, the BA-UBI-SAHND306-Q313 stapled peptide was first incubated with 2.2×10^5 70Z3-C3 cells in […] either at 4° C. or 37° C. for 2 h. Bodipy-labeled BSA, bodipy alone and bodipy-UBI were used as negative controls to verify the washing quality and efficient removal of any non-specific binding at the cell surface before FACS analysis. […] After 2 h of incubation, cells were washed four times with PBS at room temperature and diluted at 1:3 in PBS for FACS analysis. Samples were analyzed as previously described in the European patent (No: 15307137.8).

CC2-LZ domain of NEMO = CC2-LZ domain of NEMO (Mus musculus, UniProt O88522); test: Fluorescence anisotropy/polarization binding assay; conditions: for Binding affinity (FP) at 10 μM: fixed peptide concentration 10 μM
[1] = CD spectroscopy, α-helical content; format: physicochemical; conditions: 50 μM peptide, phosphate buffer pH 7.0, UBI in TFE taken as 100%
[2] = Temperature-induced denaturation followed by CD; format: physicochemical; conditions: 30 μM or 300 μM, ΔCp ≈ 0; for Tm: thermal denaturation by CD; for ΔH: van't Hoff enthalpy change at Tm
Method: Temperature-induced denaturation experiments were performed by measuring the ellipticity at 222 nm from 1° C. to 95° C. in 1° C. steps, at a rate of 1° C./min, with a 2 nm bandwidth. Thermodynamic parameters including the melting temperature (Tm) and the van't Hoff enthalpy change at the melting temperature (ΔHm) were determined by fitting the denaturation curves with the Gibbs-Helmholtz equation as described elsewhere, [10]. The heat capacity change (ΔCp) was assumed to be 0 as judged by ΔHm which yielded similar values within 10% at two independent peptide concentrations (30 and 300 μM). The ellipticity was converted to differential extinction coefficient Δε (M^−1·cm^−1) per residue taking into account the peptide concentration determined by amino acid analysis.
Thermal stability of the peptides was also investigated by performing thermal denaturation profiles followed by CD (FIGS. 1 C and D and Table III). […] Indeed, the helicity of UBI-Aib (49%) is only 1.16-fold increased at 1° C. compared to UBI (42%), while its melting temperature (Tm=−8° C.) is 2.25 times higher than that of UBI (Tm=−18° C.).

CC2-LZ domain of NEMO, sequence (O88522 242-343 limits assumed): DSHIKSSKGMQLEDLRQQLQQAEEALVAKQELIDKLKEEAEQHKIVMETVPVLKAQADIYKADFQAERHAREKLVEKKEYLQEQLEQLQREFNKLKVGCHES

SMILES: CCN(c1nc(N)c(C(=O)N=C(N)N)nc1Cl)C(C)C [ethylisopropylamiloride, 5-(N-ethyl-N-isopropyl) amiloride, reference compound]
reduction of the uptake of A-UBI-SAHND306-Q313 by endocytosis inhibitor (70Z3-C3 cells): 26%

SMILES: CC[C@H](C)[C@@H]1NC(=O)[C@](C)(NC(=O)[C@H](C)NC(=O)[C@H](CCC(N)=O)NC(=O)[C@H](C)NC(=O)[C@H](CCCCN)NC(=O)[C@H](CC(C)C)NC(=O)[C@H](CSC2CC(=O)N(CCNC(=O)CCC3=[N+]4C(=Cc5c(C)cc(C)n5[B-]4(F)F)C=C3)C2=O)NC(C)=O)CCCCCCC=CCCC[C@@](C)(C(=O)N[C@@H](C)C(=O)N[C@@H](CCC(N)=O)C(=O)N[C@@H](CCCNC(=N)N)C(=O)N[C@@H](Cc2c[nH]cn2)C(=O)N[C@@H](C)C(=O)N[C@@H](CCCNC(=N)N)C(=O)N[C@@H](CCC(N)=O)C(=O)N[C@@H](CCCCN)C(N)=O)NC(=O)[C@H](Cc2ccccc2)NC(=O)[C@H](CCCNC(=N)N)NC(=O)[C@H](C)NC(=O)[C@H](CCCCN)NC(=O)[C@H](Cc2ccc(O)cc2)NC1=O (stereo partly shown) [UBI-SAHN D306-Q313 Q/Q] (Ac-C(BODIPYFLEthylmaleimide)LKAQA[R8]IYKARF[S5]AQRHARQK-NH2; staple 7-14)
cell internalization by FACS, in words (70Z3-C3 cells): became cell permeable

Kd (CC2-LZ domain of NEMO; fixed peptide concentration 0.1 μM, read-out: Binding affinity (FP) at 0.1 μM): 24 ± 5 µM
SMILES: CC[C@H](C)[C@@H]1NC(=O)[C@](C)(NC(=O)[C@H](C)NC(=O)[C@H](CCC(N)=O)NC(=O)[C@H](C)NC(=O)[C@H](CCCCN)NC(=O)[C@H](CC(C)C)NC(=O)[C@H](CSC2CC(=O)N(CCNC(=O)CCC3=[N+]4C(=Cc5c(C)cc(C)n5[B-]4(F)F)C=C3)C2=O)NC(C)=O)CCCCCCC=CCCC[C@@](C)(C(=O)N[C@@H](C)C(=O)N[C@@H](CCC(=O)OC)C(=O)N[C@@H](CCCNC(=N)N)C(=O)N[C@@H](Cc2c[nH]cn2)C(=O)N[C@@H](C)C(=O)N[C@@H](CCCNC(=N)N)C(=O)N[C@@H](CCC(=O)OC)C(=O)N[C@@H](CCCCN)C(N)=O)NC(=O)[C@H](Cc2ccccc2)NC(=O)[C@H](CCCNC(=N)N)NC(=O)[C@H](C)NC(=O)[C@H](CCCCN)NC(=O)[C@H](Cc2ccc(O)cc2)NC1=O (stereo partly shown) [UBI-SAHN D306-Q313 OMe, LKAQAX2IYKARFX5AX7RHARX9K] (Ac-C(BODIPYFLEthylmaleimide)LKAQA[R8]IYKARF[S5]AE(OMe)RHARE(OMe)K-NH2; staple 7-14)
cell internalization by FACS, in words (70Z3-C3 cells): became cell permeable

SMILES: CN(C)CCCN1c2ccccc2Sc2ccc(Cl)cc21 [chlorpromazine, reference compound]
inhibition at 10 µg/mL (70Z3-C3 cells; read-out: reduction of the uptake of A-UBI-SAHND306-Q313 by endocytosis inhibitor): 59%

α-helical content at 1° C. [1]: B: 80% | α-helical content at 1° C. ([1]; listed as UBI-SAHNA303-A310 (B)): 80% | Binding affinity (FP) at 10 μM (CC2-LZ domain of NEMO): weak binding | ΔS [2]: B: −21 cal. mol^−1.K^−1 | Tm [2]: 33 ± 0.3 C° | ΔH [2]: B: −6510 (cal. mol)^−1
SMILES: CC[C@H](C)[C@@H]1NC(=O)[C@H](CC(=O)O)NC(=O)[C@H](C)NC(=O)[C@H](CCC(N)=O)NC(=O)[C@](C)(NC(=O)[C@H](CCCCN)NC(=O)[C@H](CC(C)C)NC(=O)[C@H](CSC2CC(=O)N(CCNC(=O)CCC3=[N+]4C(=Cc5c(C)cc(C)n5[B-]4(F)F)C=C3)C2=O)NC(C)=O)CCCCCC/C=C/CCC[C@@](C)(C(=O)N[C@@H](CCCNC(=N)N)C(=O)N[C@@H](Cc2ccccc2)C(=O)N[C@@H](CCC(N)=O)C(=O)N[C@@H](C)C(=O)N[C@@H](CCC(=O)O)C(=O)N[C@@H](CCCNC(=N)N)C(=O)N[C@@H](Cc2c[nH]cn2)C(=O)N[C@@H](C)C(=O)N[C@@H](CCCNC(=N)N)C(=O)N[C@@H](CCC(=O)O)C(=O)N[C@@H](CCCCN)C(N)=O)NC(=O)[C@H](CCCCN)NC(=O)[C@H](Cc2ccc(O)cc2)NC1=O (stereo partly shown) [UBI-SAHN A303-A310 (B)] (Ac-C(BODIPYFLEthylmaleimide)LK[R8]QADIYK[S5]RFQAERHAREK-NH2; staple (E) 4-11; N-terminus and C-terminus assumed)

α-helical content at 1° C. [1]: A: 63% - | α-helical content at 1° C. ([1]; listed as UBI-SAHNA303-A310 (A)): 63% | α-helical content at 1° C. ([1]; listed as UBI-SAHNA310-A310 (A)): 63% | Binding affinity (FP) at 10 μM (CC2-LZ domain of NEMO): weak binding | ΔS [2]: A: −21 - cal. mol^−1.K^−1 | Tm [2]: A: 5 - B: C° | ΔH [2]: A: −5950 - (cal. mol)^−1
SMILES: CC[C@H](C)[C@@H]1NC(=O)[C@H](CC(=O)O)NC(=O)[C@H](C)NC(=O)[C@H](CCC(N)=O)NC(=O)[C@](C)(NC(=O)[C@H](CCCCN)NC(=O)[C@H](CC(C)C)NC(=O)[C@H](CSC2CC(=O)N(CCNC(=O)CCC3=[N+]4C(=Cc5c(C)cc(C)n5[B-]4(F)F)C=C3)C2=O)NC(C)=O)CCCCCC/C=C\CCC[C@@](C)(C(=O)N[C@@H](CCCNC(=N)N)C(=O)N[C@@H](Cc2ccccc2)C(=O)N[C@@H](CCC(N)=O)C(=O)N[C@@H](C)C(=O)N[C@@H](CCC(=O)O)C(=O)N[C@@H](CCCNC(=N)N)C(=O)N[C@@H](Cc2c[nH]cn2)C(=O)N[C@@H](C)C(=O)N[C@@H](CCCNC(=N)N)C(=O)N[C@@H](CCC(=O)O)C(=O)N[C@@H](CCCCN)C(N)=O)NC(=O)[C@H](CCCCN)NC(=O)[C@H](Cc2ccc(O)cc2)NC1=O (stereo partly shown) [UBI-SAHN A303-A310 (A)] (Ac-C(BODIPYFLEthylmaleimide)LK[R8]QADIYK[S5]RFQAERHAREK-NH2; staple (Z) 4-11; N-terminus and C-terminus assumed)

SMILES: C[C@@H]1[C@H](O)[C@@H](C)/C=C/C=C/CC/C=C/C=C/C=C/C=C/C(O[C@H]2O[C@H](C)[C@@H](O)[C@H](N)[C@@H]2O)CC2O[C@](O)(CC(O)C(O)CCC(O)CC(O)CC(O)CC(=O)O[C@H]1C)CC(O)C2C(=O)O (stereo partly shown) [nystatin, reference compound]
reduction of the uptake of A-UBI-SAHND306-Q313 by endocytosis inhibitor (70Z3-C3 cells): 50%
